{"source": "ChEMBL document CHEMBL3045344", "about": "“Synthesis of d-amino acid peptides and their effect on beta-amyloid aggregation and toxicity in transgenic Caenorhabditis elegans” (Med Chem Res, 2013)", "key": {"[1]": {"molecular_target": "Amyloid-beta precursor protein (Homo sapiens) (UniProt P05067)", "sequence (P05067 whole entry)": "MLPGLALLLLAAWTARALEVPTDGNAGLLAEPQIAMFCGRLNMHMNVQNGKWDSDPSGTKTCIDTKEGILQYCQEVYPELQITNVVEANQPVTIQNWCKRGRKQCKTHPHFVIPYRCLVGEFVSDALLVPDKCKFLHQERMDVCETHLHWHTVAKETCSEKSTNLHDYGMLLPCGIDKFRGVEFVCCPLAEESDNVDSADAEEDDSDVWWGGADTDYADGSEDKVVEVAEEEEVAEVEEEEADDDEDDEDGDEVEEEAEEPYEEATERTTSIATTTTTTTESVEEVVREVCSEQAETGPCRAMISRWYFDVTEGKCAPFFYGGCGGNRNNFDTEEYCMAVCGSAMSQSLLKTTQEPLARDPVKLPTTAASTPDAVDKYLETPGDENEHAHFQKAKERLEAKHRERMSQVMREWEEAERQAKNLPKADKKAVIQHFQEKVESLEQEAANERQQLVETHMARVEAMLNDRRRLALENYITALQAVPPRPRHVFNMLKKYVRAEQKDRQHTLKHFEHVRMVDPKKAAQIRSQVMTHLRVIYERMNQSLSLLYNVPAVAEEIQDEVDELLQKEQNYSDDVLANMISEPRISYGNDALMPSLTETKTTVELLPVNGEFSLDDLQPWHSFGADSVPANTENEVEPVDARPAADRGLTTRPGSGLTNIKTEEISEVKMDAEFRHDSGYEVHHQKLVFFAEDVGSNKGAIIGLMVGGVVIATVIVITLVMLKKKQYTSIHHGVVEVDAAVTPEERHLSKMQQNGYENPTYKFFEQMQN", "test": "Induction of amyloid beta (1-42) (unknown origin) aggregation at Abeta42/compound molar ratio of 1:5 after 3 days by turbidity based assay"}, "[2]": {"molecular_target": "Amyloid-beta precursor protein (Homo sapiens) (UniProt P05067)", "test": "Binding affinity to amyloid beta (1-42) (unknown origin) assessed as increase in hydrophobic site exposure at Abeta42/compound molar ratio of 1:1 after 3 days by ANS fluorescence analysis"}, "[3]": {"molecular_target": "Amyloid-beta precursor protein (Homo sapiens) (UniProt P05067)", "test": "Induction of amyloid beta (1-42) (unknown origin) aggregation at Abeta42/compound molar ratio of 1:1 after 3 days by turbidity based assay"}, "[4]": {"molecular_target": "Amyloid-beta precursor protein (Homo sapiens) (UniProt P05067)", "test": "Inhibition of amyloid beta (1-42) (unknown origin) fibril formation at Abeta42/compound molar ratio of 1:5 after 3 days by thioflavin T fluorescence method"}, "[5]": {"molecular_target": "Amyloid-beta precursor protein (Homo sapiens) (UniProt P05067)", "test": "Inhibition of amyloid beta (1-42) (unknown origin) assembly assessed as decrease in fibril formation after 3 days by ThT stain based fluorescence microscopy"}, "[6]": {"molecular_target": "Amyloid-beta precursor protein (Homo sapiens) (UniProt P05067)", "test": "Stabilization of random coil conformation of amyloid beta (1-42) (unknown origin) after 3 days by CD spectroscopy"}, "[7]": {"molecular_target": "Amyloid-beta precursor protein (Homo sapiens) (UniProt P05067)", "test": "Induction of amyloid beta (1-42) (unknown origin) oligomer formation after 48 hr by silver staining"}, "Caenorhabditis elegans [8]": {"test_system": "Caenorhabditis elegans", "test": "Increase in survival of transgenic Caenorhabditis elegans CL2006 expressing human amyloid beta42 at 123 ug/ml", "assay_type": "functional, organism-based"}, "[9]": {"molecular_target": "Amyloid-beta precursor protein (Homo sapiens) (UniProt P05067)", "test": "Inhibition of amyloid beta (1-42) (unknown origin) fibril formation at Abeta42/compound molar ratio of 1:1 after 3 days by thioflavin T fluorescence method"}, "[10]": {"molecular_target": "Amyloid-beta precursor protein (Homo sapiens) (UniProt P05067)", "test": "Binding affinity to amyloid beta (1-42) (unknown origin) assessed as increase in hydrophobic site exposure at Abeta42/compound molar ratio of 1:5 after 3 days by ANS fluorescence analysis"}, "[11]": {"molecular_target": "Amyloid-beta precursor protein (Homo sapiens) (UniProt P05067)", "test": "Inhibition of amyloid beta (1-42) (unknown origin) oligomer formation after 48 hr by silver staining"}, "[12]": {"molecular_target": "Amyloid-beta precursor protein (Homo sapiens) (UniProt P05067)", "test": "Induction of amyloid beta (1-42) (unknown origin) assembly assessed as mixed fibril and spherical aggregate formation after 3 days by ThT stain based fluorescence microscopy"}, "[13]": {"molecular_target": "Amyloid-beta precursor protein (Homo sapiens) (UniProt P05067)", "test": "Inhibition of amyloid beta (1-42) (unknown origin) aggregation at Abeta42/compound molar ratio of 1:1 after 3 days by turbidity based assay"}, "Caenorhabditis elegans [14]": {"test_system": "Caenorhabditis elegans", "test": "Increase in survival of transgenic Caenorhabditis elegans CL2006 expressing human amyloid beta42 at 124 ug/ml", "assay_type": "functional, organism-based"}, "[15]": {"molecular_target": "Amyloid-beta precursor protein (Homo sapiens) (UniProt P05067)", "test": "Inhibition of amyloid beta (1-42) (unknown origin) aggregation at Abeta42/compound molar ratio of 1:5 after 3 days by turbidity based assay"}}, "note": "The source made the active and inactive calls. The calls are words filed in the database; no cut-off is given here. Square brackets hold non-standard residues; d marks the D form. Peptide text beside a SMILES is read from it.", "data": [{"compound": "CC(C)C[C@@H](NC(=O)[C@@H](CCCCN)NC(=O)[C@H](N)CCCCN)C(=O)N[C@@H](C(=O)N[C@H](Cc1ccccc1)C(=O)N[C@H](Cc1ccccc1)C(=O)N[C@H](C)C(=O)N[C@H](CCCNC(=N)N)C(=O)N[C@H](CCCNC(=N)N)C(=O)N[C@H](CCCNC(=N)N)C(=O)N[C@H](CCCNC(=N)N)C(=O)N[C@H](C)C(=O)O)C(C)C", "values": [{"measurement": "Activity", "setting": "[1]", "value": "Active"}, {"measurement": "Activity", "setting": "[2]", "value": "Active"}, {"measurement": "Activity", "setting": "[3]", "value": "Active"}, {"measurement": "inhibition", "setting": "[4]", "value": "Active"}, {"measurement": "inhibition", "setting": "[5]", "value": "Active"}, {"measurement": "Activity", "setting": "[6]", "value": "Active"}, {"measurement": "Activity", "setting": "[7]", "value": "Active"}, {"measurement": "Activity", "setting": "Caenorhabditis elegans [8]", "value": "inactive"}, {"measurement": "inhibition", "setting": "[9]", "value": "Active"}, {"measurement": "Activity", "setting": "[10]", "value": "Active"}]}, {"compound": "CC(C)C[C@@H](NC(=O)[C@@H](CCCCN)NC(=O)CNC(=O)[C@H]1CCCN1)C(=O)N[C@@H](C(=O)N[C@H](Cc1ccc(O)cc1)C(=O)N[C@H](C)C(=O)O)C(C)C", "values": [{"measurement": "inhibition", "setting": "[11]", "value": "Active"}, {"measurement": "Activity", "setting": "[12]", "value": "Active"}, {"measurement": "Activity", "setting": "[2]", "value": "Active"}, {"measurement": "inhibition", "setting": "[4]", "value": "inactive"}, {"measurement": "inhibition", "setting": "[13]", "value": "Active"}, {"measurement": "Activity", "setting": "Caenorhabditis elegans [14]", "value": "Active"}, {"measurement": "Activity", "setting": "[6]", "value": "Active"}, {"measurement": "inhibition", "setting": "[9]", "value": "inactive"}, {"measurement": "Activity", "setting": "[10]", "value": "Active"}, {"measurement": "inhibition", "setting": "[15]", "value": "Active"}]}, {"compound": "CC(C)C[C@@H](NC(=O)[C@@H](CCCCN)NC(=O)[C@H](N)CCCCN)C(=O)N[C@@H](C(=O)N[C@H](Cc1ccccc1)C(=O)N[C@H](Cc1ccccc1)C(=O)N[C@H](C)C(=O)O)C(C)C", "note": "(H-[dK][dK][dL][dV][dF][dF][dA]-OH)", "values": [{"measurement": "Activity", "setting": "[1]", "value": "Active"}, {"measurement": "inhibition", "setting": "[11]", "value": "Active"}, {"measurement": "Activity", "setting": "[2]", "value": "Active"}, {"measurement": "Activity", "setting": "[3]", "value": "Active"}, {"measurement": "inhibition", "setting": "[4]", "value": "Active"}, {"measurement": "inhibition", "setting": "[5]", "value": "Active"}, {"measurement": "Activity", "setting": "Caenorhabditis elegans [14]", "value": "Active"}, {"measurement": "Activity", "setting": "[6]", "value": "Active"}, {"measurement": "inhibition", "setting": "[9]", "value": "Active"}, {"measurement": "Activity", "setting": "[10]", "value": "Active"}]}]}
